Results on 54 molecules are retold here after patent US20250066389A1, “HETEROCYCLIC AMIDES AND METHODS OF USING THE SAME” (Rgenta Therapeutics, Inc., priority 2021, published 2025).

The structures appear in SMILES notation. Where a name gives a salt, the structure may show the parent alone.

The first experiment has as its system PMS1. Nature of the experiment: Mini-Gene Reporter Assay—PMS1 (firefly luciferase mini-gene reporter transiently transfected into HEK293 cells). It counts as cell-based. Particulars: Homo sapiens; at 5 uM; mini-gene firefly luciferase reporter in HEK293 cells; read-out: PMS1 % Effect at 5 uM. The procedure, abridged: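 Luminescence (RLU) read-out of exon inclusion: compound dilutions, tested in duplicate, act on transiently transfected HEK293 cells carrying a firefly luciferase reporter fused downstream of the PMS1 skipped-exon region. Potency derived by Levenberg-Marquardt curve fitting, with percent effect at 5 μM.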
Consider `Cc1cn2cc(C(=O)Nc3ccc(N4CCNCC4)cc3)ncc2n1` [Compound 102, 2-methyl-N-(4-(piperazin-1-yl)phenyl)imidazo[1,2-a]pyrazine-6-carboxamide], for which the activation at 5 µM is below 50%.
With `CCOc1cc2nn(C)cc2cc1C(=O)Nc1cnc(NCc2ccccc2N2CCNCC2)nc1` [Compound 451], the activation at 5 µM was below 50%.
On the same count and under the same terms, for `CCOc1cn2nc(C)cc2cc1C(=O)Nc1cnc(N2CC(NC)C(C)(C)C2)cn1` (stereo not drawn) [Compound 503] the value was above 75%; for `CCOc1cc2nn(C)cc2cc1C(=O)Nc1cnc(NC2CCC(C)NC2)cn1` (stereo not drawn) [Compound 315], below 50%.
Still for that read-out and setting: for `CCOc1cc2nn(C)cc2cc1C(=O)Nc1cnc(NCC[C@@H]2C[C@H](OC)CN2)nc1` [Compound 425] the value was below 50%.
Same read-out and setting: for `CCOc1cc2nn(C)cc2cc1C(=O)Nc1cnc(NC2CCCNC2C)cn1` (stereo not drawn) [Compound 319] the value was below 50%.
In the case of `CCOc1cn2nc(C)cc2cc1C(=O)Nc1cnc(NC(CNC)Cc2ccccc2)cn1` (stereo not drawn) [Compound 518], the activation at 5 µM is below 50%.
`CCOc1cc2nc(C)cn2cc1C(=O)Nc1ccc(C2=CCN(C)CC2)nn1` [Compound 759, 7-ethoxy-2-methyl-N-(6-(1-methyl-1,2,3,6-tetrahydropyridin-4-yl)pyridazin-3-yl)imidazo[1,2-a]pyridine-6-carboxamide]: the activation at 5 µM was above 75%.
Still for that read-out and setting: in the case of `CCOc1cc2nn(C)cc2cc1C(=O)Nc1cnc(N2CCCC(NC)CC2)cn1` (stereo not drawn) [Compound 317] it was below 50%; in that of `CCOc1cn2nc(C)cc2cc1C(=O)Nc1cnc(N2CCNCC3(CC3)C2)nc1` [Compound 604], below 50%; in that of `CCNC1CCN(c2ccc(NC(=O)c3cn4cc(C)nc4cc3OC)c(F)c2)CC1` [Compound 149, N-(4-(4-(ethylamino)piperidin-1-yl)-2-fluorophenyl)-7-methoxy-2-methylimidazo[1,2-a]pyridine-6-carboxamide], above 75%.
On the same count and under the same terms, for `CCOc1cc2nc(C)cn2cc1C(=O)Nc1cnc(N2CCNC(C)C2)nc1` (stereo not drawn) [Compound 654] the value was above 75%; for `CCOc1cn2nc(C)cc2cc1C(=O)Nc1cnc(NCCC2CCCCN2)nc1` (stereo not drawn) [Compound 588], below 50%.
Same read-out and setting: in the case of `CCOc1cc2nn(C)cc2cc1C(=O)Nc1cnc(N2CCC(C3CCCN3)CC2)cn1` (stereo not drawn) [Compound 338] it was above 75%; in that of `CCOc1cc2nn(C)cc2cc1C(=O)Nc1cnc(NCC[C@@H]2C[C@H](OC)CN2)cn1` [Compound 327], below 50%.
Turning to `CCOc1cn2nc(C)cc2cc1C(=O)Nc1cnc(N2CC(N)C(C)(C)C2)nc1` (stereo not drawn) [Compound 571], the activation at 5 µM was below 50%.
On the same count and under the same terms, in the case of `CCOc1cn2nc(C)cc2cc1C(=O)Nc1cnc(N2CC[C@@H](C)[C@@H](NC)C2)nc1` [Compound 617] it was below 50%; in that of `Cc1cn2cc(C(=O)Nc3ccc(N4CCNCC4)nc3)cc(F)c2n1` [Compound 121, 8-fluoro-2-methyl-N-(6-(piperazin-1-yl)pyridin-3-yl)imidazo[1,2-a]pyridine-6-carboxamide], below 50%; in that of `CCOc1cc2nn(C)cc2cc1C(=O)Nc1cnc(N2CC(N)CC2C)nc1` (stereo not drawn) [Compound 416], 50 to 75%.
On the same count and under the same terms, in the case of `CCOc1cc2nn(C)cc2cc1C(=O)Nc1cnc(N(C)CCNC)nc1` [Compound 484] it was below 50%.
Same read-out and setting: in the case of `CCOc1cc2nn(C)cc2cc1C(=O)Nc1cnc(N2C3CCCC2CNC3)cn1` [Compound 314] it was below 50%; in that of `CCOc1cn2nc(C)cc2cc1C(=O)Nc1cnc(N2CC3(CCNCC3)C2)nc1` [Compound 625], 50 to 75%.
`CCOc1cn2nc(C)cc2cc1C(=O)Nc1cnc(NCCNC)nc1` [Compound 592]: the activation at 5 µM was below 50%.
In the case of `CCOc1cc2nc(C)cn2cc1C(=O)Nc1cnc(NCC2CCNC23CCC3)cn1` (stereo not drawn) [Compound 659], the activation at 5 µM was above 75%.
As to `CCOc1cc2nn(C)cc2cc1C(=O)Nc1cnc(NCc2cnn3c2CNCC3)nc1` [Compound 409], the activation at 5 µM was below 50%.
The same measure, in the same setting: for `CCOc1cn2nc(C)cc2cc1C(=O)Nc1cnc(N2CCCCC3(CCNC3)C2)cn1` (stereo not drawn) [Compound 499] the value was below 50%; for `CCOc1cn2nc(C)cc2cc1C(=O)Nc1cnc(NC2CCNCC2)cn1` [Compound 559], above 75%.
Still for that read-out and setting: in the case of `CCOc1cc2nc(C)cn2cc1C(=O)Nc1cnc(N2CC(C3CNC3)C2)cn1` [Compound 664] it was above 75%; in that of `CCOc1cc2nn(C)cc2cc1C(=O)Nc1cnc(N2[C@H](CN)C[C@@H]3CCC[C@@H]32)cn1` [Compound 325], below 50%; in that of `CCOc1cc2nc(C)cn2cc1C(=O)Nc1cnc(N2CCCNCC2)nc1` [Compound 653], below 50%.
Same read-out and setting: for `CCOc1cc2nn(C)cc2cc1C(=O)Nc1cnc(N2CCN[C@@H](C(C)C)C2)cn1` [Compound 360] the value was above 75%; for `CCOc1cc2nc(C)cn2cc1C(=O)Nc1cnc(N2CCC(NC)C2)cn1` (stereo not drawn) [Compound 688], above 75%.
As to `CCOc1cc2nn(C)cc2cc1C(=O)Nc1cnc(N2CCNCC2)cn1` [Compound 370], the activation at 5 µM is above 75%.

The experiment is the same for the next values; noted with them: Homo sapiens; mini-gene firefly luciferase reporter in HEK293 cells.
Molecule `COc1cc2nc(C)cn2cc1C(=O)Nc1ccc(N2CCC3(CC2)COCCN3)cc1F` [Compound 133, N-(2-fluoro-4-(4-oxa-1,9-diazaspiro[5.5]undecan-9-yl)phenyl)-7-methoxy-2-methylimidazo[1,2-a]pyridine-6-carboxamide] came in with an IC50 below 1000 nM.
On the same count and under the same terms, in the case of `CCOc1cc2nc(C)cn2cc1C(=O)Nc1ccc(N2CCC(NCC3CC3)CC2)nn1` [Compound 249] it was 1000 to 10000 nM; in that of `CCOc1cc2nc(C)cn2cc1C(=O)Nc1ccc(N(C)C2CCCNCC2)nn1` (stereo not drawn) [Compound 250], 1000 to 10000 nM.
As for `COc1cc2nc(C)cn2cc1C(=O)Nc1ccc(N2[C@H](C)CNC[C@@H]2C)cc1F` [Compound 154, N-(4-((28,6R)-2,6-dimethylpiperazin-1-yl)-2-fluorophenyl)-7-methoxy-2-methylimidazo[1,2-a]pyridine-6-carboxamide], the IC50 was below 1000 nM.
For the molecule `CCOc1cc2nc(C)cn2cc1C(=O)Nc1ccc(N2CC[C@@H]3NCC[C@@H]3C2)nn1` (racemic) [Compound 261], the IC50 was in the range of 1000 to 10000 nM.
On to `CCOc1cc2nc(C)cn2cc1C(=O)Nc1ccc(N2CCCC3(CCNC3)C2)nn1` (stereo not drawn) [Compound 254], for which the IC50 was in the range of 10000 to 50000 nM.
Still for that read-out and setting: in the case of `CCOc1cc2nc(C)cn2cc1C(=O)Nc1ccc(N2CC34CCCC3(CNC4)C2)nn1` (stereo not drawn) [Compound 242] it was 1000 to 10000 nM; in that of `CCOc1cc2nc(C)cn2cc1C(=O)Nc1ccc(N2CCN(C3CCNC3)CC2)nn1` (stereo not drawn) [Compound 274], 1000 to 10000 nM.
On the same count and under the same terms, for `CCOc1cc2nc(C)cn2cc1C(=O)Nc1ccc(N2CCC(NCCOC)CC2)nn1` [Compound 245] the value was 1000 to 10000 nM.
On the same count and under the same terms, for `CCOc1cc2nn(C)cc2cc1C(=O)Nc1cnc(N2C[C@@H](C)N[C@@H](C)C2)cn1` [Compound 720, N-(5-((3R,5S)-3,5-dimethylpiperazin-1-yl)pyrazin-2-yl)-6-ethoxy-2-methyl-2H-indazole-5-carboxamide hydrochloride] the value was below 1000 nM; for `CCOc1nc2nc(C)cn2cc1C(=O)Nc1ccc(N2CCNCC2)cn1` [Compound 711, 7-ethoxy-2-methyl-N-(5-(piperazin-1-yl)pyridin-2-yl)imidazo[1,2-a]pyrimidine-6-carboxamide formate], below 1000 nM; for `COc1cc2nc(C)cn2cc1C(=O)Nc1ccc(N2CCNCC2C)cc1F` (stereo not drawn) [Compound 177, N-(2-fluoro-4-(2-methylpiperazin-1-yl)phenyl)-7-methoxy-2-methylimidazo[1,2-a]pyridine-6-carboxamide], below 1000 nM.
For `COc1cc2nc(C)cn2cc1C(=O)Nc1ccc(N2CCNC(C)CC2)cc1F` (stereo not drawn) [Compound 160, N-(2-fluoro-4-(5-methyl-1,4-diazepan-1-yl)phenyl)-7-methoxy-2-methylimidazo[1,2-a]pyridine-6-carboxamide], the IC50 is below 1000 nM.
`CCOc1cc2nc(C)cn2cc1C(=O)Nc1ccc(N2CCNCC2)cn1` [Compound 130, 7-ethoxy-2-methyl-N-(5-(piperazin-1-yl)pyridin-2-yl) imidazo[1,2-a]pyridine-6-carboxamide hydrochloride] displayed an IC50 below 1000 nM.
On the same count and under the same terms, in the case of `CCOc1cc2nc(C)cn2cc1C(=O)Nc1ccc(N2CC3(CNC3)C2)nn1` [Compound 277] it was 1000 to 10000 nM.
`CCOc1cc2nc(C)cn2cc1C(=O)Nc1ccc(N2CCNC(CC)C2)nn1` (stereo not drawn) [Compound 279] yielded an IC50 below 1000 nM.
For the molecule `COc1cc2nc(C)cn2cc1C(=O)Nc1ccc(N2CCN[C@@H](C)C2)cn1` [Compound 718, (S)-7-methoxy-2-methyl-N-(5-(3-methylpiperazin-1-yl)pyridin-2-yl)imidazo[1,2-a]pyridine-6-carboxamide formate], the IC50 is below 1000 nM.
The molecule `COc1cc2nc(C)cn2cc1C(=O)Nc1ccc(N(C)C2CCNC2)cc1F` (stereo not drawn) [Compound 178, N-(2-fluoro-4-(methyl(pyrrolidin-3-yl)amino)phenyl)-7-methoxy-2-methylimidazo[1,2-a]pyridine-6-carboxamide] yielded a 50% inhibitory concentration (IC50) below 1000 nM.
Still for that read-out and setting: for `CCOc1cc2nn(C)cc2cc1C(=O)Nc1ccc(N2CCNC(C)(C)C2)nn1` [Compound 220, N-(6-(3,3-dimethylpiperazin-1-yl)pyridazin-3-yl)-6-ethoxy-2-methyl-2H-indazole-5-carboxamide hydrochloride] the value was below 1000 nM.
Still for that read-out and setting: in the case of `CCOc1cc2nn(C)cc2cc1C(=O)Nc1ccc(N2CCN(C3CCOCC3)[C@@H](C)C2)nn1` [Compound 301, 6-ethoxy-2-methyl-N-{6-[(3S)-3-methyl-4-(oxan-4-yl)piperazin-1-yl]pyridazin-3-yl}-2H-indazole-5-carboxamide] it was 1000 to 10000 nM; in that of `CCOc1cc2nc(C)cn2cc1C(=O)Nc1ccc(N2CCCC(NC)C2)nn1` (stereo not drawn) [Compound 283], 1000 to 10000 nM.
